Measured values reported in patent publication US9951061B2, “CaMKII inhibitors and uses thereof” (Allosteros Therapeutics, Inc., priority 2013, dated 2018).

Target: T1, CaMKIIδ (Homo sapiens, UniProt Q13557)
T1 construct: His/Gln tag (C)
Assay: In vitro CaMKIIδ activity (inhibition) assay, coupled assay measuring ADP released
Assay type: biochemical
Conditions: full length C-terminal His/Gln tagged CaMKIIδ construct, 16 nM; peptide substrate AC3; 25° C.
Experimental: An exemplary procedure for the in vitro CaMKIIδ inhibition assay, which can be used to determine the inhibitory action of compounds of the invention toward CaMKII, follows. The procedure is taken from Chao L H, et al., (2010) Nat Struct Mol Biol. 17(3): 264-272, which is incorporated herein by reference in its entirety.
The inhibition of CaMKII activity was evaluated using a coupled assay measuring ADP released following ATP hydrolysis and phosphor-transfer to the peptide substrate AC3 (KKALHRQETVDAL; SEQ ID NO: 1) (1). A full length, C-terminal His/Gln tagged CaMKIIδ construct was used (sequence in Table 2 below).
Compounds were added in 5 uL volume to wells in UV transparent 96-well plates (½ area well size). The final compound concentrations tested ranged from 0.5 nM to 10 uM). Assays were performed in duplicate. CaMKIIδ is added to at a final concentration of 16 nM to a mixture containing 100 mM Tris (pH 7.5), 150 mM KCl, 0.27 mM EGTA, 1.3 mM PEP, 0.2 mg/ml AC3, 6.9% (v/v) PK/LDH mixture (Sigma P0294), 0.38 mM NADH and kept on ice. 72 uL of the enzyme mixture was added to the wells containing compounds and the plate was shaken briefly and kept on ice. The assay was initiated by adding 23 uL of a mixture containing 100 mM Tris (pH 7.5), 150 mM KCl, 1.7 mM CaCl2, 48 mM MgCl2, 0.35 mM ATP and 6.7 ug/mL calmodulin. The rate of ADP released was measured as the rate of absorbance decrease at […] at 25° C. and plotted against the log of the compound concentration (FIG. 1). IC50 data were fitted using GraphPad Prism software.

T1 sequence (Q13557 whole entry, looked up): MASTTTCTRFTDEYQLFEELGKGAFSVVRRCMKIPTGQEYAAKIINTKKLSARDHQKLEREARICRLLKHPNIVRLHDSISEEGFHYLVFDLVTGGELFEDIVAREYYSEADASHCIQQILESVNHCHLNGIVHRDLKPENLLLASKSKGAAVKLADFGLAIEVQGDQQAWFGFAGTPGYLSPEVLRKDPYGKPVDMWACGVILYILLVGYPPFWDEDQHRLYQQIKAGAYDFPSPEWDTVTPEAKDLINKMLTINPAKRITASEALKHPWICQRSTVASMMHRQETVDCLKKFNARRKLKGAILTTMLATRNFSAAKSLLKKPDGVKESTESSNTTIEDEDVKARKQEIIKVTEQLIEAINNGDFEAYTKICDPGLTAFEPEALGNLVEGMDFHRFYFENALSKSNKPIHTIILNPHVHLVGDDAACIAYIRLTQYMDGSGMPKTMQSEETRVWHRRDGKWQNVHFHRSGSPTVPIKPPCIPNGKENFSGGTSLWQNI

Structure (SMILES) | IC50 [nM]
c1cc(-c2ccnc3[nH]c4ccccc4c23)cc(N2CCNCC2)c1 [Compound I-1, 4-(3-(piperazin-1-yl)phenyl)-9H-pyrido[2,3-b]indole] | 50 to 250
c1cc(-c2ccnc3[nH]c4ccccc4c23)cc(-n2ccnc2)c1 [Compound I-2, 4-(3-(1H-imidazol-1-yl)phenyl)-9H-pyrido[2,3-b]indole] | ≥ 1000
NCc1cccc(-c2ccnc3[nH]c4ccccc4c23)c1 [Compound I-3, (3-(9H-pyrido[2,3-b]indol-4-yl)phenyl)methanamine] | ≥ 1000
N=C(N)Nc1cccc(-c2ccnc3[nH]c4ccccc4c23)c1 [Compound I-4, 1-(3-(9H-pyrido[2,3-b]indol-4-yl)phenyl)guanidine] | 50 to 250
N=C(N)NCc1cccc(-c2ccnc3[nH]c4ccccc4c23)c1 [Compound I-5, 1-(3-(9H-pyrido[2,3-b]indol-4-yl)benzyl)guanidine] | 250 to 1000
Nc1cccc(-c2ccnc3[nH]c4ccccc4c23)c1 [Compound I-6, 3-(9H-pyrido[2,3-b]indol-4-yl)aniline] | 50 to 250
NCCNc1cccc(-c2ccnc3[nH]c4ccccc4c23)c1 [Compound I-7, N1-(3-(9H-pyrido[2,3-b]indol-4-yl)phenyl)ethane-1,2-diamine] | ≤ 50
NCCCNc1cccc(-c2ccnc3[nH]c4ccccc4c23)c1 [Compound I-8, N1-(3-(9H-pyrido[2,3-b]indol-4-yl)phenyl)propane-1,3-diamine] | ≤ 50
NCCOc1cccc(-c2ccnc3[nH]c4ccccc4c23)c1 [Compound I-9, 2-(3-(9H-pyrido[2,3-b]indol-4-yl)phenoxy)ethanamine] | ≤ 50
NCCCOc1cccc(-c2ccnc3[nH]c4ccccc4c23)c1 [Compound I-10, 3-(3-(9H-pyrido[2,3-b]indol-4-yl)phenoxy)propan-1-amine] | ≤ 50
Cc1ccc2c(c1)[nH]c1nccc(-c3cccc(NCCN)c3)c12 [Compound I-11] | ≤ 50
COc1ccc2c(c1)[nH]c1nccc(-c3cccc(NCCN)c3)c12 [Compound I-12, N1-(3-(7-methoxy-9H-pyrido[2,3-b]indol-4-yl)phenyl)ethane-1,2-diamine] | ≤ 50
Cc1ccc2[nH]c3nccc(-c4cccc(NCCN)c4)c3c2c1 [Compound I-13, N1-(3-(6-methyl-9H-pyrido[2,3-b]indol-4-yl)phenyl)ethane-1,2-diamine] | ≤ 50
NCCNc1cccc(-c2ccnc3[nH]c4ccc(Cl)cc4c23)c1 [Compound I-14, N1-(3-(6-chloro-9H-pyrido[2,3-b]indol-4-yl)phenyl)ethane-1,2-diamine] | ≤ 50
